Article PMC8880564, “Design, Synthesis, and Biological Evaluation of a Novel VEGFR-2 Inhibitor Based on a 1,2,5-Oxadiazole-2-Oxide Scaffold with MAPK Signaling Pathway Inhibition” (Pharmaceuticals, 2022)

Tests used:
Assay in all cases: NCI-60 one-dose SRB screening
Assay type in all cases: cell-based
HOP-62 = settings: Homo sapiens, HOP-62, Non-Small Cell Lung Cancer, 10 µM one dose, 48 h, read-out: growth percentage
BT-549 = settings: Homo sapiens, BT-549, Breast Cancer, 10 µM one dose, 48 h, read-out: growth percentage
SK-MEL-2 = settings: Homo sapiens, SK-MEL-2, Melanoma, 10 µM one dose, 48 h, read-out: growth percentage
OVCAR-3 = settings: Homo sapiens, OVCAR-3, Ovarian Cancer, 10 µM one dose, 48 h, read-out: growth percentage
CAKI-1 = settings: Homo sapiens, CAKI-1, Renal Cancer, 10 µM one dose, 48 h, read-out: growth percentage
SNB-19 = settings: Homo sapiens, SNB-19, CNS Cancer, 10 µM one dose, 48 h, read-out: growth percentage
PC-3 = settings: Homo sapiens, PC-3, Prostate Cancer, 10 µM one dose, 48 h, read-out: growth percentage
HCC-2998 = settings: Homo sapiens, HCC-2998, Colon Cancer, 10 µM one dose, 48 h, read-out: growth percentage
UACC-62 = settings: Homo sapiens, UACC-62, Melanoma, 10 µM one dose, 48 h, read-out: growth percentage
MDA-MB-435 = settings: Homo sapiens, MDA-MB-435, Melanoma, 10 µM one dose, 48 h, read-out: growth percentage
RPMI-8226 = settings: Homo sapiens, RPMI-8226, Leukemia, 10 µM one dose, 48 h, read-out: growth percentage
UACC-257 = settings: Homo sapiens, UACC-257, Melanoma, 10 µM one dose, 48 h, read-out: growth percentage
COLO 205 = settings: Homo sapiens, COLO 205, Colon Cancer, 10 µM one dose, 48 h, read-out: growth percentage
NCI-H522 = settings: Homo sapiens, NCI-H522, Non-Small Cell Lung Cancer, 10 µM one dose, 48 h, read-out: growth percentage
SF-295 = settings: Homo sapiens, SF-295, CNS Cancer, 10 µM one dose, 48 h, read-out: growth percentage
OVCAR-4 = settings: Homo sapiens, OVCAR-4, Ovarian Cancer, 10 µM one dose, 48 h, read-out: growth percentage
SW-620 = settings: Homo sapiens, SW-620, Colon Cancer, 10 µM one dose, 48 h, read-out: growth percentage
U251 = settings: Homo sapiens, U-251, U251, CNS Cancer, 10 µM one dose, 48 h, read-out: growth percentage
SF-268 = settings: Homo sapiens, SF-268, CNS Cancer, 10 µM one dose, 48 h, read-out: growth percentage
M14 = settings: Homo sapiens, M14, Melanoma, 10 µM one dose, 48 h, read-out: growth percentage
MOLT-4 = settings: Homo sapiens, MOLT-4, Leukemia, 10 µM one dose, 48 h, read-out: growth percentage
NCI/ADR-RES = settings: Homo sapiens, Ovarian Cancer, 10 µM one dose, 48 h, read-out: growth percentage

SMILES | activity at 10 µM (HOP-62) [%] | activity at 10 µM (BT-549) [%] | activity at 10 µM (SK-MEL-2) [%] | activity at 10 µM (OVCAR-3) [%] | activity at 10 µM (CAKI-1) [%] | activity at 10 µM (SNB-19) [%] | activity at 10 µM (PC-3) [%] | activity at 10 µM (HCC-2998) [%] | activity at 10 µM (UACC-62) [%] | activity at 10 µM (MDA-MB-435) [%] | activity at 10 µM (UACC-257) [%] | activity at 10 µM (COLO 205) [%] | activity at 10 µM (NCI-H522) [%] | activity at 10 µM (SF-295) [%] | activity at 10 µM (OVCAR-4) [%] | activity at 10 µM (SW-620) [%] | activity at 10 µM (U251) [%] | activity at 10 µM (SF-268) [%] | activity at 10 µM (M14) [%] | activity at 10 µM (NCI/ADR-RES) [%] | also measured
[O-][n+]1onc(-c2ccccc2)c1CNc1ccc(Nc2nc(C(F)(F)F)nc3c2cnn3-c2ccc(Br)cc2)cc1 [12b, 3-(((4-((1-(4-bromophenyl)-6-(trifluoromethyl)-1H-pyrazolo[3,4-d]pyrimidin-4-yl)amino)phenyl)amino)methyl)-4-phenyl-1,2,5-oxadiazole 2-oxide] | 77.9 | 97.5 | 99.8 | 92 | 31.1 | 78.9 | 48.2 | 75.1 | 64.9 | 72.8 | 102 | 74.6 | 72.6 | 54.5 | 78.5 | 84.8 | 73.2 | 65 | 68.2 | 66.4 | activity at 10 µM (RPMI-8226): 73.8%; activity at 10 µM (MOLT-4): 47%
O=c1[nH]c(CCl)nc2c1cnn2-c1ccccc1 [13a] | 125 | 94.1 | 104 | 95.9 | 97.6 | 96.3 | 105 | 105 | 96.2 | 95.7 | 99 | 114 | 103 | 110 | 100 | 102 | 93.7 | 99.9 | 110 | 104 | activity at 10 µM (RPMI-8226): 82.5%; activity at 10 µM (MOLT-4): 104%
Cc1nn(-c2ccc(Br)cc2)c2nc(C(F)(F)F)nc(Nc3ccc(NCc4c(-c5ccccc5)no[n+]4[O-])cc3)c12 [12c, 3-(((4-((1-(4-bromophenyl)-3-methyl-6-(trifluoromethyl)-1H-pyrazolo[3,4-d]pyrimidin-4-yl)amino)phenyl)amino)methyl)-4-phenyl-1,2,5-oxadiazole 2-oxide] | 68.3 | 97.4 | 104 | 91.6 | 55 | 84.1 | 47 | 96.1 | 62.5 | 86.6 | 95.7 | 73.2 | 83.5 | 57.5 | 81.3 | 79.7 | 54.1 | 73.2 | 71.9 | 88.8 | activity at 10 µM (RPMI-8226): 91.1%; activity at 10 µM (MOLT-4): 60.3%
[O-][n+]1onc(-c2ccccc2)c1COc1ccc(Nc2ncnc3c2cnn3-c2ccccc2)cc1 [6a, 4-phenyl-3-((4-((1-phenyl-1H-pyrazolo[3,4-d]pyrimidin-4-yl)amino)phenoxy)methyl)-1,2,5-oxadiazole 2-oxide] | 107 | 95.4 | 105 | 95.9 | 99.4 | 105 | 98.1 | 106 | 103 | 114 | 98.9 | 104 | 99.2 | 98.4 | 130 | 106 | 107 | 103 | 104 | 102 | activity at 10 µM (RPMI-8226): 104%; activity at 10 µM (MOLT-4): 87.4%
[O-][n+]1onc(-c2ccccc2)c1COc1ccc(Nc2ncnc3c2cnn3-c2ccc(Br)cc2)cc1 [6e, 3-((4-((1-(4-bromophenyl)-1H-pyrazolo[3,4-d]pyrimidin-4-yl)amino)phenoxy)methyl)-4-phenyl-1,2,5-oxadiazole 2-oxide] | 105 | 95.8 | 99.2 | 117 | 82.1 | 103 | 97 | 106 | 89.1 | 94.5 | 104 | 105 | 96.1 | 101 | 100 | 115 | 102 | 101 | 102 | 107 | activity at 10 µM (RPMI-8226): 111%; activity at 10 µM (MOLT-4): 103%
Cc1nn(-c2ccc(Br)cc2)c2nc(CCl)[nH]c(=O)c12 [13c] | 98.5 | 101 | 103 | 97.4 | 96.3 | 97.1 | 96.3 | 105 | 101 | 101 | 102 | 103 | 85.5 | 100 | 116 | 110 | 99.7 | 99.4 | 106 | 102 | activity at 10 µM (RPMI-8226): -53.9%
Cc1nc(Nc2ccc(OCc3c(-c4ccccc4)no[n+]3[O-])cc2)c2c(C)nn(-c3ccc(Br)cc3)c2n1 [6h, 3-((4-((1-(4-bromophenyl)-3,6-dimethyl-1H-pyrazolo[3,4-d]pyrimidin-4-yl)amino)phenoxy)methyl)-4-phenyl-1,2,5-oxadiazole 2-oxide] | 104 | 91.1 | 96.9 | 104 | 83.8 | 94.5 | 67.4 | 106 | 80.2 | 96.7 | 99.8 | 94.4 | 84 | 105 | 97 | 101 | 96.4 | 94.7 | 89.5 | 102 | activity at 10 µM (RPMI-8226): 90.6%; activity at 10 µM (MOLT-4): 87.6%
Cc1nn(-c2ccccc2)c2nc(CCl)[nH]c(=O)c12 [13b] | 98.3 | 100 | 97.9 | 97.4 | 99.6 | 89.4 | 102 | 108 | 97.9 | 99 | 98.8 | 110 | 89.8 | 109 | 90.9 | 85.1 | 93.9 | 106 | 103 | 102 | activity at 10 µM (MOLT-4): 79.6%
